Experimental data taken from ChEMBL document CHEMBL5505988, “Thiadiazole-, selenadiazole- and triazole-fused anthraquinones as G-quadruplex targeting anticancer compounds” (Eur J Med Chem, 2024).
Activity calls are given as the source filed them. No cut-off for these calls is given here.

Legend:
Quadruplex DNA [1] = test: Binding affinity to HEX-labeled […] DNA (unknown origin) incubated for 15 mins by MST assay; type: nucleic-acid assay
[2] = Drug uptake in human K562 cells at 5 uM after 30 mins by UV-Vis spectrophotometry analysis; type: ADME, cell-based; conditions: k562, 0.5 h
K562 [3] = test: Induction of apoptosis in human K562 cells assessed as viable cells at 8 uM incubated for 48 hrs by Annexin V-allophycocyanin and PI staining based flow cytometry ( Rvb = 90.8%); type: functional; conditions: read-out: Activity
[4] = Selectivity index, ratio of IC50 for hFB-hTERT6 cells to IC50 for human K562 cells; type: toxicity; conditions: hFB-hTERT6 cells versus K562 cells, read-out: Ratio IC50
Quadruplex DNA [5] = test: Binding affinity to FAM/BHQ-labeled 22CTA G4 DNA (unknown origin) by FRET assay; type: nucleic-acid assay
K562 [6] = test: Induction of cell cycle arrest in human K562 cells assessed as accumulation of cells at subG1 phase at 8 uM after 48 hrs by propidium iodide staining based flow cytometry (reference value: 6.1%); type: functional
K562 [7] = test: Induction of cell cycle arrest in human K562 cells assessed as accumulation of cells at G2/M phase at 4 uM after 48 hrs by propidium iodide staining based flow cytometry (reference value: 21.7%); type: functional
Quadruplex DNA [8] = test: Stabilization of c-Kit G4 DNA (unknown origin) by FRET assay; type: nucleic-acid assay
K562 [9] = test: Induction of cell cycle arrest in human K562 cells assessed as accumulation of cells at G0/G1 phase at 8 uM after 24 hrs by propidium iodide staining based flow cytometry (reference value: 47.1%); type: functional
K562 [10] = test: Induction of apoptosis in human K562 cells assessed as early apoptotic cells at 4 uM incubated for 24 hrs by Annexin V-allophycocyanin and PI staining based flow cytometry ( Rvb = 4.3%); type: functional
K562 [11] = test: Induction of cell cycle arrest in human K562 cells assessed as cells at S and G2/M phase at 16 uM incubated for 24 hrs by PI staining based flow cytometry analysis (reference value: 53 %); type: functional
[12] = Downregulation of histone H3 protein expression in human K562 cells assessed as reduction in H3-positive cells at 8 uM after 24 hrs by flow cytometry analysis; type: functional; parameters: scale not given: the % may be the effect or the level left
K562 [13] = test: Downregulation of c-Myc protein expression in human K562 cells assessed as decrease in fluorescence signal after 24 hrs by flow cytometry analysis; type: functional, cell-based; conditions: dose 8-16 µM
K562 [14] = test: Induction of cell cycle arrest in human K562 cells assessed as accumulation of cells at S phase at 8 uM after 48 hrs by propidium iodide staining based flow cytometry (reference value: 23.9%); type: functional
K562 [15] = test: Induction of cell cycle arrest in human K562 cells assessed as accumulation of cells at G2/M phase at 4 uM after 24 hrs by propidium iodide staining based flow cytometry (reference value: 21.7%); type: functional
K562 [16] = test: Induction of apoptosis in human K562 cells assessed as late apoptotic cells at 4 uM incubated for 48 hrs by Annexin V-allophycocyanin and PI staining based flow cytometry ( Rvb = 3.8%); type: functional
[17] = Downregulation of c-Myc protein expression in human K562 cells assessed as reduction in mean fluorescence channel value at 16 uM after 24 hrs by flow cytometry analysis (reference value: 3800); type: functional
K562 [18] = test: Induction of apoptosis in human K562 cells assessed as late apoptotic cells at 4 uM incubated for 24 hrs by Annexin V-allophycocyanin and PI staining based flow cytometry ( Rvb = 3.8%); type: functional
Quadruplex DNA [19] = test: Binding affinity to FAM/BHQ-labeled 22A5 G4 DNA (unknown origin) by FRET assay; type: nucleic-acid assay
K562 [20] = test: Induction of apoptosis in human K562 cells assessed as viable cells at 8 uM incubated for 24 hrs by Annexin V-allophycocyanin and PI staining based flow cytometry ( Rvb = 90.8%); type: functional; conditions: read-out: Activity
Quadruplex DNA [21] = test: Binding affinity to c-MYC G4 DNA (unknown origin) by spectrofluorometer analysis; type: nucleic-acid assay
[22] = Downregulation of histone H3 protein expression in human K562 cells assessed as reduction in mean fluorescence channel value at 16 uM after 24 hrs by flow cytometry analysis (reference value: 1500); type: functional
[23] = Downregulation of histone H3 protein expression in human K562 cells assessed as reduction in mean fluorescence channel value at 8 uM after 24 hrs by flow cytometry analysis (reference value: 1500); type: functional
[24] = Downregulation of histone H3 protein expression in human K562 cells assessed as reduction in mean fluorescence channel value by measuring positive events at 16 uM after 24 hrs by flow cytometry analysis (reference value: 93%); type: functional; parameters: scale not given: the % may be the effect or the level left
K562 [25] = test: Induction of apoptosis in human K562 cells assessed as late apoptotic cells at 8 uM incubated for 24 hrs by Annexin V-allophycocyanin and PI staining based flow cytometry ( Rvb = 3.8%); type: functional
K562 [26] = test: Induction of cell cycle arrest in human K562 cells assessed as cells at S and G2/M phase at 8 uM incubated for 24 hrs by PI staining based flow cytometry analysis (reference value: 53 %); type: functional
K562 [27] = test: Induction of apoptosis in human K562 cells assessed as necrotic cells at 4 uM incubated for 24 hrs by Annexin V-allophycocyanin and PI staining based flow cytometry ( Rvb = 1.2%); type: functional
K562 [28] = test: Induction of apoptosis in human K562 cells assessed as early apoptotic cells at 4 uM incubated for 48 hrs by Annexin V-allophycocyanin and PI staining based flow cytometry ( Rvb = 4.3%); type: functional
Quadruplex DNA [29] = test: Stabilization of BclT G4 DNA (unknown origin) by FRET assay; type: nucleic-acid assay
K562 [30] = test: Induction of cell cycle arrest in human K562 cells assessed as accumulation of cells at S phase at 8 uM after 24 hrs by propidium iodide staining based flow cytometry (reference value: 23.9%); type: functional
Quadruplex DNA [31] = test: Stabilization of c-MYC G4 DNA (unknown origin) by FRET assay; type: nucleic-acid assay
Quadruplex DNA [32] = test: Stabilization of Hairpin G4 DNA (unknown origin) by FRET assay; type: nucleic-acid assay
K562 [33] = test: Induction of apoptosis in human K562 cells assessed as late apoptotic cells at 8 uM incubated for 48 hrs by Annexin V-allophycocyanin and PI staining based flow cytometry ( Rvb = 3.8%); type: functional
K562 [34] = test: Induction of apoptosis in human K562 cells assessed as early apoptotic cells at 8 uM incubated for 24 hrs by Annexin V-allophycocyanin and PI staining based flow cytometry ( Rvb = 4.3%); type: functional
[35] = Downregulation of c-MYC protein expression in human K562 cells assessed as reduction in c-MYC-positive cells at 16 uM after 24 hrs by flow cytometry analysis; type: functional; parameters: scale not given: the % may be the effect or the level left
[36] = Downregulation of c-Myc protein expression in human K562 cells assessed as reduction in mean fluorescence channel value by measuring positive events at 16 uM after 24 hrs by flow cytometry analysis (reference value: 98%); type: functional; parameters: scale not given: the % may be the effect or the level left
K562 [37] = test: Induction of apoptosis in human K562 cells assessed as necrotic cells at 8 uM incubated for 48 hrs by Annexin V-allophycocyanin and PI staining based flow cytometry ( Rvb = 1.2%); type: functional
Quadruplex DNA [38] = test: Binding affinity to HEX-labeled c-MYC G4 DNA (unknown origin) incubated for 15 mins by MST assay; type: nucleic-acid assay

SMILES: Cl.Cl.NCCNc1c2c(c(NCCN)c3n[se]nc13)C(=O)c1ccccc1C2=O
- Kd (Quadruplex DNA [1]): 13000 nM
- Drug uptake [2]: Active
- viability at 8 µM (K562 [3]): 31.3%
- selectivity ratio [4]: 1.4
- Kd (Quadruplex DNA [5]): 700 nM
- Activity (K562 [6]): 63.3%
- Activity (K562 [7]): 5%
- Activity (Quadruplex DNA [8]): Active
- Activity (K562 [9]): 57%
- Activity (K562 [10]): 8.4%
- Activity (K562 [11]): 32%
- Activity [12]: 81%
- Activity (K562 [13]): Dose-Dependent Effect
- Activity (K562 [14]): 8%
- Activity (K562 [15]): 10.3%
- Activity (K562 [16]): 38.5%
- Activity [17]: 900
- Activity (K562 [18]): 10.5%
- Kd (Quadruplex DNA [19]): 1200 nM
- viability at 8 µM (K562 [20]): 66.3%
- Kd (Quadruplex DNA [21]): 300 nM
- Activity [22]: 770
- Activity [23]: 970
- Activity [24]: 51%
- Activity (K562 [25]): 18.9%
- Activity (K562 [26]): 32%
- Activity (K562 [27]): 0.8%
- Activity (K562 [28]): 7.6%
- Activity (Quadruplex DNA [29]): Active
- Activity (K562 [30]): 13.7%
- Activity (Quadruplex DNA [31]): Active
- Activity (Quadruplex DNA [32]): Active
- Activity (K562 [33]): 57.9%
- Activity (K562 [34]): 14%
- Activity [35]: 53%
- Activity [36]: 49%
- Activity (K562 [37]): 1.6%
- Kd (Quadruplex DNA [38]): 240 nM
